From US20110178053A1, “AZACARBOLINE DERIVATIVES, PREPARATION METHOD THEREOF AND THERAPEUTIC USE OF SAME” (SANOFI-AVENTIS, priority 2008, published 2011)
Where two headings read alike, the source gives them in different places.

What was measured:
EOL-1 = test: Cell viability assay (CellTiter-Blue), EOL-1; type: cell-based; conditions: Homo sapiens, EOL1, read-out: EC50 EOL-1 μM (lymphoma)
Source text: (§1) The representative compounds of the invention are also screened as regards their effects on cell proliferation and viability using a variety of human tumour cell lines, which are representative of various pathological indications. These cell lines include: • Models of haematological cancers: • TF-1 (acute myelogenic leukaemia; AML M6 at the time of diagnosis); • KG-1 (AML; erythroleukaemia evolving into AML); • KG-1a (AML; sub-clone derived from immature KG-1); • EOL-1 (AML; eosinophilic leukaemia); • PL-21 (AML; M3); • ML-2 (AML; T-NHL evolving into T-ALL evolving into AML M4); • HL-60 (AML, M3); • Kasumi-1 (AML); • GDM-1 (AML); • K-562 (CML—chronic myelogenic leukaemia; blastic crisis); • JURL-MK1 (CML; blastic crisis); • DND-41 (T-ALL—-cell acute lymphoblastic leukaemia); • Jurkat (T-ALL); NALM-6 (B-ALL—B-cell ALL); • CEM (ALL; lymphosarcoma evolving into ALL); • Jeko-1 (B-NHL—B-cell non-Hodgkin lymphoma; mantle-cell lymphoma derived from a variant with large cells as a leukaemic transformation); • WSU-DLCL2 (B-NHL; large B-cell diffuse lymphoma); • RL (B-NHL; undifferentiated diffuse); • OCI-Ly10 (B-NHL); • DoHH-2 (B-NHL); • RPMI-8226 (MM—multiple myeloma); • JVM-2 (B-CLL—B-cell chronic lymphocytic leukaemia); and • JVM-3 (B-CLL) • MV4-11 (AML) • MOLM13 (AML). • Solid tumour models: • HCT-116 (bowel cancer); • HT-29 (bowel cancer); • HC-15 (bowel cancer); • H460 (lung cancer; non-small-cell lung cancer); • A375 (melanoma); • B16F10 (melanoma); • MDA-A1 (breast cancer); • MDA-MB231 (breast cancer); • MDA-MB231 adr (breast cancer); • PANC-1 (pancreatic cancer); and • PC-3 (prostate cancer).
(§2) In order to measure the viability, the tumour cells are incubated in a 96-well or 384-well format for 48, 72 or 96 hours, preferably 72 hours, with a compound of the invention at dilutions of a factor 3 with, in general, nine doses in total, the highest dose being equal to 10 μM or 30 μM. The cell viability is evaluated by adding CellTiter-Blue® (Promega, Madison, Wis., United States) for 4 hours and end-point readings are taken using a SpectraMax Genmini EM (Molecular Devices, Sunnyvale, Calif., United States). The CellTiter-Blue® cell viability assay measures the ability of the cells in culture to reduce resazurin to resorufin, the fluorescence signal intensity being directly proportional to the number of live cells.

MV4-11 = test: Cell viability assay (CellTiter-Blue), MV4-11; type: cell-based; conditions: Homo sapiens
Source text: as §1, §2

Pim-2 = biological target: T1, Pim-2 (Homo sapiens, UniProt Q9P1W9); test: TR-FRET assay, Pim-2 kinase (phosphorylation of Bad Ser112); type: biochemical; conditions: TR-FRET; ATP 40 μM; read-out: IC50 Pim2
T1 construct: His6-labelled recombinant full-length human Pim-1, Pim-2 or Pim-3 protein; His6; made in house
T1 sequence (Q9P1W9 whole entry): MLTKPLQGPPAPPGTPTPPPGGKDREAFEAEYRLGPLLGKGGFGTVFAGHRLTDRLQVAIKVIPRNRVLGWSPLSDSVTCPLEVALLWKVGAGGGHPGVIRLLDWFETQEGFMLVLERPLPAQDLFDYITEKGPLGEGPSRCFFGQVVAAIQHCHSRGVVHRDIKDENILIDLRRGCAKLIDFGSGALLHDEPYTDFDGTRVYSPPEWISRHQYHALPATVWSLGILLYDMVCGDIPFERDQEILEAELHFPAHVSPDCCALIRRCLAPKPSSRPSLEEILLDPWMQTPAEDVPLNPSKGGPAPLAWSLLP
Method in brief: (§3)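 For each of Pim-1, Pim-2 and Pim-3 (His6-tagged full-length human), compounds were titrated over 10 concentrations in duplicate, typically from 30 μM, with ATP at 40 μM, equal to apparent KM. Bad Ser112 phosphorylation was read as the 665/615 nm TR-FRET ratio and IC50 fitted by 4-parameter logistic model.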

Pim-1 = biological target: T2, Pim-1 (Homo sapiens, UniProt P11309); test: TR-FRET assay, Pim-1 kinase (phosphorylation of Bad Ser112); type: biochemical; conditions: TR-FRET; ATP 40 μM; read-out: IC50 Pim1
T2 construct: His6-labelled recombinant full-length human Pim-1, Pim-2 or Pim-3 protein; His6; made in house
T2 sequence (P11309 whole entry): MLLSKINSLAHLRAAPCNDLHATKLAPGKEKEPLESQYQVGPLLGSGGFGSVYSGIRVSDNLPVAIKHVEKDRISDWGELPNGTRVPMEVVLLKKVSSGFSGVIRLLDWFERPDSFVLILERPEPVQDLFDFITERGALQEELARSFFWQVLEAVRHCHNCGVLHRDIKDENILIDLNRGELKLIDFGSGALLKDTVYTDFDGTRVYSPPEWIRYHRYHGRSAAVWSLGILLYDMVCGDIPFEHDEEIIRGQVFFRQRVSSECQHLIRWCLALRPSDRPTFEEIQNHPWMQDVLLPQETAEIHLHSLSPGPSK
Method in brief: as §3

Pim-3 = biological target: T3, Pim-3 (Homo sapiens, UniProt Q86V86); test: TR-FRET assay, Pim-3 kinase (phosphorylation of Bad Ser112); type: biochemical; conditions: TR-FRET; ATP 40 μM; read-out: IC50 Pim3
T3 construct: His6-labelled recombinant full-length human Pim-1, Pim-2 or Pim-3 protein; His6; made in house
Method in brief: as §3

MOLM-13 = test: Cell viability assay (CellTiter-Blue), MOLM-13; type: cell-based; conditions: Homo sapiens
Source text: as §1, §2

PLK1 = PLK1 (Homo sapiens, UniProt P53350); test: PLK1 biochemical inhibition
PLK1, sequence (P53350 whole entry, species assumed): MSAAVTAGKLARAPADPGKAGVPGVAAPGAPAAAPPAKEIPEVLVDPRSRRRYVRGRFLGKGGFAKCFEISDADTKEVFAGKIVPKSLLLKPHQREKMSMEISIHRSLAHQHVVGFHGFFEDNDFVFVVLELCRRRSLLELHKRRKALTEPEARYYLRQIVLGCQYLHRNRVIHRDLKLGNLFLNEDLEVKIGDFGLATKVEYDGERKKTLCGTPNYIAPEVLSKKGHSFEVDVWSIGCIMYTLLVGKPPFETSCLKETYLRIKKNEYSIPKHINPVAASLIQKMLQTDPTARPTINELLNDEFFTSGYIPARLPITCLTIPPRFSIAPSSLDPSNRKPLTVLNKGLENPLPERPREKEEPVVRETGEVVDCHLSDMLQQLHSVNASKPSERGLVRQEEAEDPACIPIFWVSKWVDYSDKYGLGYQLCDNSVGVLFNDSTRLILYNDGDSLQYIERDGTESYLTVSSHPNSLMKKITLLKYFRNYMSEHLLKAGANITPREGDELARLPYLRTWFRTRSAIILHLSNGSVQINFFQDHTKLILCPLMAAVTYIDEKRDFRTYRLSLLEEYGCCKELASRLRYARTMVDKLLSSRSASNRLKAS

PI3K = PI3K biochemical inhibition
[1] = EOL-1 cells, cell proliferation/viability
[2] = MV4-11 cells, cell proliferation/viability, read-out: IC50 MV4-11 μM (myeloma)
[3] = MOLM-13 cells, cell proliferation/viability, read-out: IC50 MOLM-13 μM (myeloma)

Compound | IC50 (MV4-11; [2]) [nM] | IC50 (Pim-2) [nM] | IC50 (Pim-1) [nM] | IC50 (Pim-3) [nM] | IC50 (MOLM-13; [3]) [nM] | IC50 (PLK1) [nM] | IC50 (PI3K) [nM] | EC50 (EOL-1; [1]) [nM] | EC50 (EOL-1) [nM] | IC50 (MV4-11; MV4-11, read-out: IC50 MV4-11 μM (myeloma)) [nM] | IC50 (MOLM-13; MOLM-13, read-out: IC50 MOLM-13 μM (myeloma)) [nM]
COc1ccnc2[nH]c3cnc(-c4cccnc4)cc3c12 [Example 8, 4-methoxy-6-(pyrid-3-yl)-9H-pyrrolo-[2,3-b:5,4-c′]-dipyridine] | 100 to 1000 | 1000 to 5000 | 1 to 100 | 100 to 1000 | 100 to 1000 | 100 to 1000 |  | 100 to 1000 |  |  | 
NS(=O)(=O)c1cccc(-c2c(F)cnc3[nH]c4cnc(-c5cccnc5)cc4c23)c1 [Example 21, 3-[3-Fluoro-6-(pyrid-3-yl)-9H-pyrrolo[2,3-b:5,4-c′]dipyrid-4-yl]-benzenesulfonamide] |  | > 5000 | 1 to 100 | 100 to 1000 |  | 1 to 100 | 1000 to 5000 |  |  |  | 
COc1cc(OC)cc(-c2c(F)cnc3[nH]c4cnc(-c5cccnc5)cc4c23)c1 [Example 23, 4-(3,5-dimethoxy-phenyl)-3-fluoro-6-(pyrid-3-yl)-9H-pyrrolo-[2,3-b:5,4-c′]dipyridine] |  | > 5000 | 1 to 100 | 100 to 1000 |  | 1000 to 5000 | > 5000 |  |  |  | 
Oc1cccc(-c2c(F)cnc3[nH]c4cnc(-c5cccnc5)cc4c23)c1 [Example 26] |  | 1000 to 5000 | 1 to 100 | 100 to 1000 |  |  | 100 to 1000 |  |  |  | 
Fc1cnc2[nH]c3cnc(-c4cccnc4)cc3c2c1/C=C/C1CC1 [Example 27, 4-[(E)-2-cyclopropyl-ethenyl]-3-fluoro-6-(pyrid-3-yl)-9H-pyrrolo-[2,3-b:5,4-c′]dipyridine] |  | > 5000 | 1 to 100 | 100 to 1000 |  |  | > 5000 |  |  |  | 
O=S(=O)(NC1CC1)c1ccc(-c2c(F)cnc3[nH]c4cnc(-c5cccnc5)cc4c23)cc1 [Example 28, N-cyclopropyl-4-(3-fluoro-6-(pyrid-3-yl)-9H-pyrrolo[2,3-b:5,4-c′]-dipyrid-4-yl]benzene-sulfonamide] |  | > 5000 | 1 to 100 | 100 to 1000 |  | 1 to 100 | 1000 to 5000 |  |  |  | 
CCN(CC)CCN1CCN(c2c(F)cnc3[nH]c4cnc(-c5cccnc5)cc4c23)CC1 [Example 79, N,N-diethyl-2-{4-[3-fluoro-6-(pyrid-3-yl)-9H-pyrrolo[2,3-b:5,4-c′]dipyrid-4-yl]-piperazin-1-yl}-ethanamine] |  | 1000 to 5000 | 1 to 100 | 1 to 100 |  | 100 to 1000 | 1000 to 5000 |  |  |  | 
CN(C)CCCOc1ccc(-c2c(F)cnc3[nH]c4cnc(-c5cccnc5)cc4c23)cc1 [Example 94, 3-{-4-[3-fluoro-6-(pyrid-3-yl)-9H-pyrrolo[2,3-b:5,4-c′]dipyrid-4-yl]phenoxy}-N,N-dimethylpropan-1-amine] |  | 100 to 1000 | 1 to 100 | 1 to 100 |  | 1 to 100 |  |  | 1 to 100 | 1 to 100 | 100 to 1000
Cc1n[nH]c(C)c1-c1cnc2[nH]c3cnc(-c4cccnc4)cc3c2c1 [Example 120, 3-(3,5-dimethyl-1H-pyrazol-4-yl)-6-(pyrid-3-yl)-9H-pyrrolo[2,3-b:5,4-c′]-dipyridine] | 1 to 100 | > 5000 | 1 to 100 | 1 to 100 | 100 to 1000 | 100 to 1000 |  | 1 to 100 |  |  | 
c1cncc(-c2cc3c(cn2)[nH]c2ncc(-c4ccc(N5CCNCC5)cc4)cc23)c1 [Example 130, 3-[4-(piperazin-1-yl)phenyl]-6-(pyrid-3-yl)-9H-pyrrolo[2,3-b:5,4-c′]dipyridine] | 1 to 100 | 100 to 1000 | 1 to 100 | 1 to 100 | 1 to 100 |  |  | 1 to 100 |  |  | 

Continued, in another order:

IC50 (MV4-11; [2]) [nM] | IC50 (Pim-2) [nM] | IC50 (Pim-1) [nM] | IC50 (Pim-3) [nM] | IC50 (MOLM-13; [3]) [nM] | IC50 (PLK1) [nM] | IC50 (PI3K) [nM] | Compound | EC50 (EOL-1; [1]) [nM] | EC50 (EOL-1) [nM] | IC50 (MV4-11; MV4-11, read-out: IC50 MV4-11 μM (myeloma)) [nM] | IC50 (MOLM-13; MOLM-13, read-out: IC50 MOLM-13 μM (myeloma)) [nM]
100 to 1000 | 100 to 1000 | 1 to 100 | 1 to 100 | 100 to 1000 | 100 to 1000 |  | COc1cnc2[nH]c3cnc(-c4cccnc4)cc3c2c1 [Example 7, 3-methoxy-6-(pyrid-3-yl)-9H-pyrrolo-[2,3-b:5,4-c′]-dipyridine] | 100 to 1000 |  |  | 
100 to 1000 | 100 to 1000 | 1 to 100 | 1 to 100 |  | 100 to 1000 | > 5000 | Fc1cnc2[nH]c3cnc(-c4cccnc4)cc3c2c1N1CCN(CCCN2CCCCC2)CC1 [Example 86, 3-fluoro-4-{4-[3-(piperid-1-yl)propyl]piperazin-1-yl}-6-(pyrid-3-yl)-9H-pyrrolo-[2,3-b:5,4-c′]-dipyridine] | 100 to 1000 |  |  | 
100 to 1000 | 100 to 1000 | 1 to 100 | 1 to 100 | 100 to 1000 | 100 to 1000 |  | CN(C)CCOc1ccc(-c2c(F)cnc3[nH]c4cnc(-c5cccnc5)cc4c23)cc1 [Example 96, 2-{4-[3-fluoro-6-(pyrid-3-yl)-9H-pyrrolo[2,3-b:5,4-c′]dipyrid-4-yl]-phenoxy}-N,N-dimethylethanamine] | 1 to 100 |  |  | 
100 to 1000 | 100 to 1000 | 1 to 100 | 1 to 100 | 100 to 1000 | 1 to 100 |  | Fc1cnc2[nH]c3cnc(-c4cccnc4)cc3c2c1-c1ccc(OCCN2CCCC2)cc1 [Example 97, 3-fluoro-6-(pyrid-3-yl)-4-{4-[2-(pyrrolidin-1-yl)ethoxy]phenyl}-9H-pyrrolo[2,3-b:5,4-c′]dipyridine] | 100 to 1000 |  |  | 
100 to 1000 | 1 to 100 | 1 to 100 | 1 to 100 | 100 to 1000 | 100 to 1000 |  | CC(COc1ccc(-c2c(F)cnc3[nH]c4cnc(-c5cccnc5)cc4c23)cc1)CN(C)C (stereo not drawn) [Example 98, 3-{4-[3-fluoro-6-(pyrid-3-yl)-9H-pyrrolo[2,3-b:5,4-c′]dipyrid-4-yl]phenoxy}-N,N,2-trimethylpropan-1-amine] | 1 to 100 |  |  | 
100 to 1000 | 100 to 1000 | 1 to 100 | 1 to 100 | 100 to 1000 | 1 to 100 |  | CCN(CC)CCOc1ccc(-c2c(F)cnc3[nH]c4cnc(-c5cccnc5)cc4c23)cc1 [Example 100, N,N-diethyl-2-{4-[3-fluoro-6-(pyrid-3-yl)-9H-pyrrolo[2,3-b:5,4-c′]dipyrid-4-yl]-phenoxy}ethanamine] | 1 to 100 |  |  | 
100 to 1000 | 100 to 1000 | 1 to 100 | 1 to 100 | 100 to 1000 | 100 to 1000 |  | CCN(CC)C(=O)c1cccc(-c2cnc3[nH]c4cnc(-c5cccnc5)cc4c3c2)c1 [Example 119, N,N-diethyl-3-[6-(pyrid-3-yl)-9H-pyrrolo[2,3-b:5,4-c′]dipyrid-3-yl]-benzamide] | 1 to 100 |  |  | 
1 to 100 | 100 to 1000 | 1 to 100 | 1 to 100 | 1 to 100 | 1000 to 5000 |  | CCN(CC)CCn1cc(-c2cnc3[nH]c4cnc(-c5cccnc5)cc4c3c2)cn1 [Example 123, N,N-diethyl-2-{4-[6-(pyrid-3-yl)-9H-pyrrolo-[2,3-b:5,4-c′]-dipyrid-3-yl]-1H-pyrazol-1-yl}-ethanamine] | 1 to 100 |  |  | 
